pIC50: −log10 of the molar value. “Also recorded” adds a separate entry of the source.
What was measured:
[1] = test system: HIV-1 (LAV-1 strain) in MOLT-4 cells; experiment: Inhibitory activity of HIV syncytia formation: HIV-1 acute-phase infection; format: cell-based; conditions: in concentrations of at least 1.0 μM; 48 hours
Procedure: a) Activity of the medicament on HIV-1 acute-phase infection:
Cells obtained by culturing MOLT-4 (American Type Culture Collection ATCC CRL-1582) in RPMI medium (GIBCO Corp.) containing 10% FBS (fetal bovine serum: GIBCO Corp.) (culture condition: 37° C., 5% CO2 /95% air) were prepared to aliquot number of cells (1×10^5 cells/50 μl). The cell suspension, 50 μl and the liquid preparation, 50 μl containing HIV-1 (LAV-1 strain, Wain-Hobson et al., Cell 40: 9-17, 1985) in RPMI medium with 10% FBS were put into each well of a 96 hole microplate and cultured for 48 hours (Infectious condition of MOLT-4 and HIV-1: M.O.I.=4.0).
Each compound was dissolved in RPMI medium containing 10% FBS at the final concentration as shown in FIG. 1 to prepare the medicament solution. The medicament solution, 100 μl was added to the mixture of MOLT-4 cell preparation and HIV-1 preparation at the time of mixing with MOLT-4 and HIV-1 to prepare the final volume of the liquid, 200 μl. The number of formed syncytia were microscopically counted.
Tested compounds were: FAS (fasudil hydrochloride, Chem. Pharm. Bull., 40 (3), 770-773, (1992)), C kinase inhibitor H-7 (1-5-isoquinolinylsulfonyl)-2-methyl-piperazine, Sigma Corp.), and calmodulin kinase II inhibitor KN-62 (1-(N,O-bis-[5-isoquinolinylsulfonyl]-N-methyl-L-tyrosyl)-4-phenyl-piperazine, Sigma Corp., Neuroscience Lett., 129, 47 (1991)) .
The control group without the compound was prepared by replacing the medicament solution, 100 μl.
Syncytium formation activity was calculated by comparing the syncytia formation in the test group to that of the control group in the following equation.
Syncytium formation activity=number of syncytia formed in the medicament-added group/number of syncytia formed in the no-medicament-added group.

[2] = test system: HIV-1 (LAV-1) persistently infected MOLT-4 cells with non-infected MOLT-4 cells; experiment: Inhibitory activity of HIV syncytia formation: HIV-1 chronic-phase infection; format: cell-based
Procedure: b) Activity of the medicament on HIV-1 chronic-phase infection:
Cells obtained by culturing MOLT-4 (culture condition: 37° C., 5% CO2 /95% air, RPMI medium (GIBCO Corp.) containing 10% FBS) were adjusted to a preferable number of cells (1×10^5 cells/50 μl). HIV-1 (LAV-1) preparation, 50 μl was added to the cell suspension, 50 μl and subjected to a mixing culture (infectious condition of HIV-1 to MOLT-4: M.O.I.=1). The infected cell mixture was cultured by exchanging a fresh culture medium every 3 days at a volume rate of 2:5. The culture was continued for more than 1 month to prepare persistent infected cells. The concentration of the persistent infected cells was adjusted to a preferable number of cells (1×10^5 cells/50 μl ) (the persistent infected cell preparation).
Cell preparation without infection was prepared by culturing MOLT-4 (culture condition: 37° C., 5% CO2 /95% air, RPMI medium (GIBCO Corp.) containing 10% FBS) and adjusting the concentration to a preferable number of cells (1×10^5 cells/50 μl).
The persistent infected cell preparation, 50 μl, was placed in the wells of a 96 hole microplate and the non-infected cell preparation, 50 μl, was added therein and cultured for 48 hours. Numbers of the formed syncytia were counted microscopically.
Each compound solution tested was added, 100 μl, at the time of mixing the persistent infected cell preparation with the non-infected cell preparation, to provide the final concentrations shown in FIG. 2 (medicament added test group).
The no-medicament-added group (control group) was prepared by replacing the compound solution, 100 μl.

[3] = test system: HIV-1 p24 gag protein, HIV-1 infected MOLT-4 cells; experiment: Suppressive action of HIV production (p24 gag protein in culture supernatant, ELISA); format: cell-based; conditions: FIG. 4; 5 days; hydrochloride
Procedure: Suppressive action of HIV production (extracellular release from cells). Cells obtained by culturing MOLT-4 (culture condition: 37° C., 5% CO2 /95% air. RPMI medium (GIBCO Corp.) containing 10% FBS) were adjusted to a preferable number of cells (1×10^5 cells/50 μl). The cell suspension, 50 μl, (infection with MOLT-4 and HIV-1: M.O.I.=1.0) were put in a 96 hole microplate and cultured for 1 hour to infect the cells. A solution of the compounds shown below, 100 μl, was added in each well and cultured for 5 days. The cultured solution was transferred into a plastic tube (Eppendorf Corp.) and centrifuged. The amount of p24 gag protein in the cultured supernatant medium wa assayed by using an Abbott kit (ELISA: Dinabot Co.). FAS, H-7 and KN-62 were used as the compound, and a solution without the compound was used as a control.

[4] = test system: HIV-1; experiment: Comparison of suppressive activity of HIV proliferation with FAS and other anti-HIV drugs (syncytium formation); format: cell-based
Procedure: Comparison of suppressive activity of HIV proliferation with FAS and other anti-HIV drugs.
Experiments were conducted by the same method as in Example 3.
The medicaments used in this experiment were compounds of the present invention (FAS, and a compound of formula [I] where R^1 is hydroxy as in the above-mentioned Japanese Patent Unexamined Publication No. 61-152658), ddI (Sigma Corp.) and AZT (Sigma Corp.) which are used as medicaments for the treatment of AIDS, and dextran sulfate (Sigma Corp.).

[5] = test system: rabbit plasma; experiment: Blood coagulation time (APTT, PT); set-up: species or system rabbit (male, Japanese white); conditions: for PT / APTT: N=4, mean ± S.E.; for PT: control 7.3 ± 0.4; for APTT: control 16.9 ± 0.8
Procedure: a) Blood coagulation time:
Rabbits (male, Japanese white, body weight 2-3 kg, Oriental Yeast Co.) were used. […] After adding the test compound to the resultant plasma, activated partial thromboplastin time (APTT) and prothrombin time (PT) were measured by using a coagulometer (Coagtec, Coagtec TE600, EMRA; KC-10A, Baxter).

[6] = test system: myosin light chain kinase; conditions: Cranial Nerve, 45 (9), 819-824, 1993; cited from earlier work
[7] = test system: C kinase; conditions: Cranial Nerve, 45 (9), 819-824, 1993; cited from earlier work

Cl.O=S(=O)(c1cccc2cnccc12)N1CCCNCC1 [FAS, hexahydro-1-(5-isoquinoline-sulfonyl)-1H-1,4-diazepine hydrochloride]
inhibition of syncytia formation [1]: 90% | viral transmission from persistent infected cells to non-infected cells [2]: suppressed | inhibitory activity for syncytium formation ([2]; FIG. 2, 48 hours): extremely high suppressive action on syncytium formation | minimal effective concentration ([2]; Human immunodeficiency virus 1, MOLT-4, 48 hours, persistent infected cells mixed with non-infected cells, read-out: concentration showing inhibitory activity for syncytium formation): ≥ 3.75 µM | p24 gag protein in the cultured supernatant medium / HIV-1 generation [3]: decreased p24 gag protein in the cultured supernatant medium and suppressed HIV-1 generation; also recorded: apparently stronger than that of H-7 (-.increment.-) and KN-62 (-.quadrature.-) | inhibitory activity of syncytium formation of HIV-1 [4]: higher sensitivity than dextran sulfate, ddI and AZT | pIC50 ([4]; Human immunodeficiency virus 1, FIG. 5, approximate, read-out: 50% inhibitory concentration, syncytium formation): ~6.10 | effect on blood coagulation time (APTT, PT) [5]: no effect on blood coagulation time | PT ([5]; 10 μM): 7.1 ± 0.6 s | APTT ([5]; 10 μM): 16.4 ± 0.8 s | PT ([5]; 30 μM): 7.1 ± 0.5 s | APTT ([5]; 30 μM): 16.0 ± 0.8 s | PT ([5]; 100 μM): 7.6 ± 0.9 s | APTT ([5]; 100 μM): 16.3 ± 0.8 s | myosin light chain kinase inhibition [6]: myosin light chain kinase inhibition | C kinase inhibition [7]: C kinase inhibition

From patent US5733904A, “Method for prevention and treatment of viral infectious diseases for viral suppression” (priority 1996, dated 1998)
